In general, IC50 refers to the concentration at which inhibition is half-maximal. As usually defined, the viability is a read-out of living cells in per cent, often relative to untreated cells.

Converted amounts (≈) assume the structure as drawn.

In data set [1] the target is FAS prepared from Saccharomyces cerevisiae (Saccharomyces cerevisiae, UniProt P07149+P19097). To be noted: Li et al. (2002), cited from earlier work.
The subject of data set [2] is FAS I enzyme from bovine liver. Nature of the data set: FAS I assay (NADPH oxidation at 340 nm). The class given is biochemical, Indian water buffalo. The note with it: for Average ΔC (change in concentration of NADPH): control 0.051383. As to the method: Crude preparation of FAS I enzyme was made according to modified protocol of Dulter et al. (1971). Liver from freshly slaughtered Indian water buffalo was collected and transported in ice bucket and kept at 4° C. till processing. The liver was processed at the earliest by removing connective tissues and sliced into small pieces. Using a blender, about 750 g of liver was minced to form a suspension with 0.05 M potassium phosphate buffer pH 7.4 containing 1 mM EDTA to make up to a volume of 2.5 liters. The thick solution was centrifuged at 7500×g for 20 minutes to remove meat debris and the supernatant obtained was further centrifuged at 30000×g for 30 minutes to get a translucent solution. The supernatant was further diluted to specific volume using 0.05 M Potassium phosphate buffer (pH 7.4) with 1 mM EDTA and brought initially to 10% and then to 40% saturation with solid ammonium sulfate at 4° C. The 40% ammonium sulfate fraction was centrifuged and protein precipitate was re-dissolved in 0.05 mM Tris HCl buffer, pH 7.4, dialyzed against same buffer. The FAS I enzyme was further purified by ion exchange chromatography with Diethylaminoethyl (DEAE) cellulose column as described above (Dulter et al. 1971).
FAS assay for FAS I enzyme was performed according to a modified process of Li et al. 2002. Crude protein was made up to a concentration of 0.5 mg/mL of protein and used for the assay. Assay was carried out in 96 well plates with the final working volume of 100 μL. Compounds to be tested were incubated with previously made crude protein extract for 30 minutes at 25° C. 50 μL of this mixture was added to 50 of reaction mixture containing 1 mM each of malonyl CoA and Nicotinamide adenine dinucleotide phosphate (NADPH), 40 μM acetyl CoA, and 2 mM Dithiothreitol (DTT) in phosphate buffer (250 mM).
The microplate was read immediately for 10 minutes at 340 nm. FAS activity was calculated by subtracting the optical density (OD) value obtained after 1 minute from the OD value obtained after 10 minutes. FAS activity was calculated and compared with that of control and test compounds. Dimethyl sulfoxide (DMSO) was taken as control as it was used to dilute the compounds. […] The negative control consisted of protein plus reaction buffer. Another control consisted of buffer reaction without protein. The IC50 was determined by linear regression. FAS activity was determined by the rate of oxidation of NADPH to NADP which was monitored at 340 nm. The change in concentration of NADPH during oxidation was calculated using the following equation: ΔC=ΔA/E
Where, ΔC was change in the concentration of NADPH, ΔA was change in absorbance, and E was extinction coefficient of NADPH (E340 nm=6.22 mM^−1·cm^−1). FAS activity was expressed as n mol NADPH oxidized/min/mg protein.

The test system of data set [3] is A549 lung carcinoma cells. Nature of the data set: In-vitro anti-proliferative property on cultured A549 cells (MTT assay). It is filed as cell-based. To be noted: for Percentage Viability / IC50 anti-proliferative activity against A549 cells / viability at 6.25 µg/mL / viability at 12.5 µg/mL / viability at 25 µg/mL / viability at 50 µg/mL / viability at 100 µg/mL: 24 hours; for IC50 anti-proliferative activity against A549 cells / IC50: MTT; for IC50 / viability at 6.25 µg/mL / viability at 12.5 µg/mL / viability at 25 µg/mL / viability at 50 µg/mL / viability at 100 µg/mL: Homo sapiens; for IC50: A549, 24 h, read-out: IC50 anti-proliferative activity against A549 cells; for viability at 6.25 µg/mL / viability at 12.5 µg/mL / viability at 25 µg/mL / viability at 50 µg/mL / viability at 100 µg/mL: read-out: Percentage Viability. As to the method:
A549 lung carcinoma cells were maintained in Dulbecco's modified eagles media (Himedia, India) supplemented with 10% FBS (Invitrogen, India) and grown to confluence at 37° C. and 5% CO2 in a humidified atmosphere using a CO2 incubator (NBS, Eppendorf, Germany). The cells were trypsinized (500 μL of 0.025% trypsin in PBS/0.5 mM EDTA solution (Himedia, India) for 2 minutes and transferred to T flasks under aseptic condition. Test compounds were added to grown cells with a final concentration of 6.25, 12.5, 25, 50, 100 μg/mL from a stock of 1 mg/mL and incubated for 24 hours. The % difference in viability was determined by standard MTT assay (Arung et al. 2000) after 24 hours of incubation. Viability percentage was calculated using the Formula, % viability=(OD of Test/OD of Control)×100

For data set [4], the system named is Bacterial FAS II enzyme. Put plainly: FAS II assay (NADPH oxidation at 340 nm). The class given is biochemical, Bacillus subtilis. To be noted: for Average ΔC (change in concentration of NADPH): control 0.05037. Here is the method:
Crude FAS containing protein fraction was isolated according to the modified protocol of Ahmad et al. (1981). Stock culture of Bacillus subtilis was inoculated in 100 mL LB broth pH 7.2 and cultured for 24 hours at room temperature. It was used for further inoculation of four 1000 mL flasks with same media and culture conditions. The flasks were placed in a rotator shaker to ensure adequate suspension of cells. Bacteria were harvested during the late-exponential phase of growth by centrifugation at 10000×g for 10 minutes and washed twice with 50 mM sodium phosphate buffer (pH 7.0) to provide cell pastes which were stored at -20° C. until use. Frozen cell pastes (25-35 g) were thawed and suspended in 50 mM sodium phosphate buffer (pH 7.0). The cell suspension was disrupted by sonication (12 W, 6×15 pulses with 15 second intervals) in 2 mL Eppendorf tubes containing 1.5 mL of cell suspension, supplemented with lysozyme (250 μg/mL) in a sonicator, operating at maximum power output while maintaining the temperature below 4° C. Unbroken cells and cell debris were removed by centrifugation at 30000×g for 30 minutes at 4° C. The […] were re-suspended in 50 mM sodium phosphate buffer (pH 7.0) and made up to appropriate volume and subjected to ammonium sulphate precipitation. Solid ammonium sulphate was added and the protein precipitate at 40-60% saturation was collected by centrifugation, dialyzed and used for further assay. FAS assay for FAS I enzyme was performed according to a modified process of Li et al. 2002. Crude protein was made up to a concentration of 0.5 mg/mL of protein and used for the assay. Assay was carried out in 96 well plates with the final working volume of 100 μL. […] The microplate was read immediately for 10 minutes at 340 nm. FAS activity was calculated by subtracting the optical density (OD) value obtained after 1 minute from the OD value obtained after 10 minutes. FAS activity was calculated and compared with that of control and test compounds. Dimethyl sulfoxide (DMSO) was taken as control as it was used to dilute the compounds. […] The negative control consisted of protein plus reaction buffer. Another control consisted of buffer reaction without protein. The IC50 was determined by linear regression. FAS activity was determined by the rate of oxidation of NADPH to NADP which was monitored at 340 nm. The change in concentration of NADPH during oxidation was calculated using the following equation: ΔC=ΔA/E Where, ΔC was change in the concentration of NADPH, ΔA was change in absorbance, and E was extinction coefficient of NADPH ([…] nm=6.22 mM^-1·cm^-1). FAS activity was expressed as n mol NADPH oxidized/min/mg protein. Assay using partially purified enzyme from Bacillus subtilis was also performed to verify the FAS II inhibitory activity of compound of Formula II. […] The graph was plotted with change in concentration of NADP to NADPH against time. Each point in graph was the concentration of NADPH measured on a spectrophotometer at 340 nm (FIGS. 6 and 7 for FAS II and FAS I respectively).

Data set [5] deals with L929 (Fibroblast cells). Nature of the data set: In-vitro cytotoxic effect on cultured L929 cells (MTT assay). The class given is cell-based. The note with it: MTT, 24 hours. Here is the method: (§1) Cultures of L929 (Fibroblast cells) were maintained in Dulbecco's modified eagles media supplemented with 10% fetal bovine serum (FBS) and grown to confluence at 37° C. and 5% CO2 in a humidified atmosphere using a CO2 incubator. The cells were trypsinised (500 μL of 0.025% Trypsin in PBS/0.5 mM Ethylene diamine tetraacetic acid (EDTA) solution for 2 minutes and passed to T flasks under complete aseptic conditions. Test compounds were added to grown cells at a final concentration of 6.25, 12.5, 25, 50 and 100 μg/mL from a stock of 1 mg/mL and incubated for 24 hours. The percentage difference in viability was determined by standard MTT assay after 24 hours of incubation. The MTT assay is a colorimetric assay for assessing cell metabolic activity. NAD (P) H-dependent cellular oxidoreductase enzymes under defined conditions, reflect the number of viable cells present.
(§2) Viability percentage was calculated using the Formula, % viability=(OD of Test/OD of control)×100, • where control OD was 0.993.
On the technique in general: Formazan colour is commonly taken as a measure of viable cells.

Assay in data set [6]: as above
The class given is cell-based. The note with it: mouse. As to the method: as §1, §2

Chain of FAS prepared from Saccharomyces cerevisiae (P07149 whole entry): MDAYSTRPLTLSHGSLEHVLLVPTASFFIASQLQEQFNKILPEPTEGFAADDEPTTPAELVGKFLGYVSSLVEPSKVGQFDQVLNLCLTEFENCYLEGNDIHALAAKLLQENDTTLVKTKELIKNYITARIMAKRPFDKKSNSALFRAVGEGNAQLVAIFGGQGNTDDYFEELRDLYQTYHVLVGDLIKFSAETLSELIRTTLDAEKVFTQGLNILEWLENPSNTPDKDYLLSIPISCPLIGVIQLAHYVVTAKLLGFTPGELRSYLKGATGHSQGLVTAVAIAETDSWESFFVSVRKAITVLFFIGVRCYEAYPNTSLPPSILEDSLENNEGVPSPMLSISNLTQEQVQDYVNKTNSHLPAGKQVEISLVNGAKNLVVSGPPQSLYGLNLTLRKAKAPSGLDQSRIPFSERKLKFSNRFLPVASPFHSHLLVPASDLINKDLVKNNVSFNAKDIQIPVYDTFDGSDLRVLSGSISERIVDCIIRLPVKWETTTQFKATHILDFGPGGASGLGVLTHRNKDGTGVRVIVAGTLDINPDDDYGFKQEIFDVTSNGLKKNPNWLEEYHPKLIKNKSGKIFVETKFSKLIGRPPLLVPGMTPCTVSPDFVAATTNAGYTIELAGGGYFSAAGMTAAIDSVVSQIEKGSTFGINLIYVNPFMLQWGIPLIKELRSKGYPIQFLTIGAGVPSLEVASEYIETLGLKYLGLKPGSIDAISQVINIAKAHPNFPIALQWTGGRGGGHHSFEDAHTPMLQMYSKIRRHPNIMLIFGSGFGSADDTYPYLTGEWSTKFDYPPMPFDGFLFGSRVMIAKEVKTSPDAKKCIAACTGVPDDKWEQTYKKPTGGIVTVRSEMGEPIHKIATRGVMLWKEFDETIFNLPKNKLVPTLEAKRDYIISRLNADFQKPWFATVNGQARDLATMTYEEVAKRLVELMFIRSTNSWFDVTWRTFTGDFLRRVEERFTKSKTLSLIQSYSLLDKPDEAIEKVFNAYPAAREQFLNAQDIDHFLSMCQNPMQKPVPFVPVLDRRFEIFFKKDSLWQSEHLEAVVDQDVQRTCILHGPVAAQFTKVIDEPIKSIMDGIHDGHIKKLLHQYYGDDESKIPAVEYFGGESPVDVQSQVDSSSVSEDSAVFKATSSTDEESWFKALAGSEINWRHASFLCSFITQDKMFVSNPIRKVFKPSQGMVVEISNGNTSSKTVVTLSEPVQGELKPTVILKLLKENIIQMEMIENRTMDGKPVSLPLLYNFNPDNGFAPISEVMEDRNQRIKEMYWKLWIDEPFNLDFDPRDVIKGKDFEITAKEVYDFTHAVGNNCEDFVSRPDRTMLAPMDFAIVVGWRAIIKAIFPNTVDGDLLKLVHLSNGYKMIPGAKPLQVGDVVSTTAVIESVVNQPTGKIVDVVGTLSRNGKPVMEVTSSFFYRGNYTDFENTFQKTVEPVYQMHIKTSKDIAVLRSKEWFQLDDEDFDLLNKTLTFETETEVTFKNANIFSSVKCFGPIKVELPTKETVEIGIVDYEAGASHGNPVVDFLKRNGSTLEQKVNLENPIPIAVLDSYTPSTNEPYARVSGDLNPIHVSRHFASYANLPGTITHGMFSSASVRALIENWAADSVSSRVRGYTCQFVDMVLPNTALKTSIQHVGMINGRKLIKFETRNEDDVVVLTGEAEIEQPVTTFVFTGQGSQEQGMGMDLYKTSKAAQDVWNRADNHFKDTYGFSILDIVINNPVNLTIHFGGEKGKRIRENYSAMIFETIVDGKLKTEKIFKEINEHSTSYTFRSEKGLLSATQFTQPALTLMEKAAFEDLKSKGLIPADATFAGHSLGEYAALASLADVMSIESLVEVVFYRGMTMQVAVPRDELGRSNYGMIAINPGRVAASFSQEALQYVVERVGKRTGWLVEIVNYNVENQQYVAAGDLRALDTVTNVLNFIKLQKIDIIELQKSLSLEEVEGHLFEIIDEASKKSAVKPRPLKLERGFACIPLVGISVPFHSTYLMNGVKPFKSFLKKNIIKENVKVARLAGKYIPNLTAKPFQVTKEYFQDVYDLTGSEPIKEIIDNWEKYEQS
Chain of FAS prepared from Saccharomyces cerevisiae (P19097 whole entry): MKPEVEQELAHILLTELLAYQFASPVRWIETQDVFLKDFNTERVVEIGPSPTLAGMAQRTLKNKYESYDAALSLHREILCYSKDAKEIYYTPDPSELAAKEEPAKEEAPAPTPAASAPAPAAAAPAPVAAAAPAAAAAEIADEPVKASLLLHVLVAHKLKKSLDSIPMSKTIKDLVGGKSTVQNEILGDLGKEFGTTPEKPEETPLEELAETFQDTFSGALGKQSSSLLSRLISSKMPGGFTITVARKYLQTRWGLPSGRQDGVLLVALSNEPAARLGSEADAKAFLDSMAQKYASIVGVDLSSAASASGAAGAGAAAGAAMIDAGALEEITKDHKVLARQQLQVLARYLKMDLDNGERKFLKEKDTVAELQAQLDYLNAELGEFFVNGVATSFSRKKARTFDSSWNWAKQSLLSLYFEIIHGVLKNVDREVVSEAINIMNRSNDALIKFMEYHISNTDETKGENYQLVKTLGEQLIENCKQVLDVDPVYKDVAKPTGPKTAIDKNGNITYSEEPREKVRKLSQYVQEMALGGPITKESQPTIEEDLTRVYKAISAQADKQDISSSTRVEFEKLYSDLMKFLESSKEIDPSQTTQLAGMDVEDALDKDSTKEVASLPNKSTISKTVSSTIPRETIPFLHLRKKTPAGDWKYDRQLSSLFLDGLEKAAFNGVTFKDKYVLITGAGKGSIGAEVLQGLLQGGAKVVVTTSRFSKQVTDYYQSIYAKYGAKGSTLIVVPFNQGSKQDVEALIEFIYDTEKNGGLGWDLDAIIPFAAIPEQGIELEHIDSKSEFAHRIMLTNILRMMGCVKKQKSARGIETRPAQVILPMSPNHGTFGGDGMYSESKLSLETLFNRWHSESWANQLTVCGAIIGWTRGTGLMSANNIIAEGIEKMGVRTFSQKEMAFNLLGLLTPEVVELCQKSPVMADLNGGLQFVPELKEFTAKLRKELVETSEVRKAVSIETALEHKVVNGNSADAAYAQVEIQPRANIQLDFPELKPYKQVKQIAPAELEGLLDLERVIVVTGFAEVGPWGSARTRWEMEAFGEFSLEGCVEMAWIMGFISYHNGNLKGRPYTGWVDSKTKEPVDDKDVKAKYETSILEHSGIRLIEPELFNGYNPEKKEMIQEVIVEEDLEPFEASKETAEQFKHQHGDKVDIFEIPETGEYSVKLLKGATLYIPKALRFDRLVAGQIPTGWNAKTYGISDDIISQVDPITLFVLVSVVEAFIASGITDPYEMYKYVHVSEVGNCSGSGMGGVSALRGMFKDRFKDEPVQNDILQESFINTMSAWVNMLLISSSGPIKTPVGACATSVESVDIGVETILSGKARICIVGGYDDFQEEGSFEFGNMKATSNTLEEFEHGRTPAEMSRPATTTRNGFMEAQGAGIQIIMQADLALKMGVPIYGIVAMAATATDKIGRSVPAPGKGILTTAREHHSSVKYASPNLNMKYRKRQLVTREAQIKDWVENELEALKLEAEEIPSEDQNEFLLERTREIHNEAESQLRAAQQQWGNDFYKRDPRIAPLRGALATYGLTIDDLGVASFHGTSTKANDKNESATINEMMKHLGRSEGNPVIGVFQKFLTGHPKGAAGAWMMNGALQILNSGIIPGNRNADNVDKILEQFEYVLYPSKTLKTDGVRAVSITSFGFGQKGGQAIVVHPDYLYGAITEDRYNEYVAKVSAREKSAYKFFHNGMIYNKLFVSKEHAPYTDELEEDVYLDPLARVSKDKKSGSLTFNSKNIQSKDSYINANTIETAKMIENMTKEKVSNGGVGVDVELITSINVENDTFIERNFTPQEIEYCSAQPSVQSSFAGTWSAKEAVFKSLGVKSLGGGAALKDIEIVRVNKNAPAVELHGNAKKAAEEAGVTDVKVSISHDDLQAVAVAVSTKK

Turning to `O=Cc1cc(-c2coc3cc(O)cc(O)c3c2=O)ccc1O` [3′-Formylgenistein], the IC50 in data set [1] (read-out: IC50 against FAS (converted)) is 7.71 µM.
For the molecule `C=C1C(=O)OC(CCCCCCCC)C1C(=O)O` (stereo not drawn) [C75], the “Inhibition compared to control” value was 29.60% in data set [2] and 15.67% in data set [4]. Moreover, the “Average ΔC (change in concentration of NADPH)” value worked out at 0.03612 in data set [2] and 0.04248 in data set [4]. In addition, the “Percentage Viability” value in data set [3] (A549, 6.25 μg/mL) was determined as 100.0%; in data set [3] (A549, 12.5 μg/mL), 100.0%; in data set [3] (A549, 25 μg/mL) it was 80.110%; in data set [3] (A549, 50 μg/mL), 66.483%; in data set [3] (A549, 100 μg/mL) it was 55.985%. For the same molecule, in data set [3], the “IC50 anti-proliferative activity against A549 cells” value was 99.034 µg/mL (≈ 389 µM).
Turning to `CC(C)[C@H](O)C(=O)/C(O)=C/[C@@H](N)/C=C\CCCC[C@H]1C=C[C@@H](O)C=C1` [Compound of Formula II, (3S,5Z,7S,8Z)-7-amino-3,5-dihydroxy-2-methyl-13-[(1s,4s)-4-hydroxycyclohexa-2,5-dien-1-yl]trideca-5,8-dien-4-one], in data set [2], the “Inhibition compared to control” value is 41.49% and the “Average ΔC (change in concentration of NADPH)” value amounted to 0.03006. In addition, in data set [3], the IC50 was in the range of 74 to 78 µg/mL and the “IC50 anti-proliferative activity against A549 cells” value was determined as 76.034 µg/mL. Also, in data set [3] (A549, 6.25 μg/mL), the viability at 6.25 µg/mL worked out at 92.3%. Also, the viability at 12.5 µg/mL in data set [3] (A549, 12.5 μg/mL) amounted to 89.7%. Moreover, in data set [3] (A549, 25 μg/mL), the viability at 25 µg/mL came out at 67.4%. In addition, in data set [3] (A549, 50 μg/mL), the viability at 50 µg/mL came out at 55.7%. In addition, the viability at 100 µg/mL in data set [3] (A549, 100 μg/mL) worked out at 42.6%. Moreover, the “LD50 against L929 cell lines” value in data set [5] is given as “about 89.65 μg/mL”. Moreover, in data set [6], the viability at 24 h, 6.25 μg/mL was found to be 90.8%; the viability at 24 h, 12.5 μg/mL turned out to be 85.8%; the viability at 24 h, 25 μg/mL was found to be 74.7%; the viability at 24 h, 50 μg/mL stood at 64.3%. Moreover, in data set [6], the viability at 24 h, 100 μg/mL is 55.8%. For the same molecule, in data set [4], the “Inhibition compared to control” value came out at 30.54% and the “Average ΔC (change in concentration of NADPH)” value is reported as 0.03498.
Take `C[C@@H]1O[C@@H](Oc2cc3c(=O)oc4c(O)c(O)cc5c(=O)oc(c2O)c3c45)[C@H](O)[C@H](O)[C@H]1O` [ellagic acid 4-O-alpha-1-rhamnopyranoside]: the “IC50 against FAS” value in data set [1] is on record as 7.5 microgram/mL.
`C/C=C/C/C=C/CCC(=O)[C@H]1O[C@H]1C(N)=O` [Cerulenin]: the “Inhibition compared to control” value turned out to be 36.49% in data set [2] and 21.48% in data set [4]. Further, the “Average ΔC (change in concentration of NADPH)” value was 0.03248 in data set [2] and 0.03955 in data set [4]. Further, the IC50 in data set [3] was 86.4 µg/mL (≈ 387 µM). Further, the viability at 6.25 µg/mL in data set [3] (A549, 6.25 μg/mL) worked out at 100%. Also, in data set [3] (A549, 12.5 μg/mL), the viability at 12.5 µg/mL worked out at 96.9%. Also, the viability at 25 µg/mL in data set [3] (A549, 25 μg/mL) was 72%. Further, the viability at 50 µg/mL in data set [3] (A549, 50 μg/mL) worked out at 62.2%. In addition, in data set [3] (A549, 100 μg/mL), the viability at 100 µg/mL was found to be 48.1%.

These data come from patent publication US10851043B1, “Compound for fatty acid synthase inhibition” (KANNUR UNIVERSITY, priority 2019, dated 2020).
